Results as given in PubChem BioAssay AID2060912 (Molecular Pharmacology Branch, DTP, NCI, 2025).

Tested on: HUVEC/MSC spheroids viability
Experiment: Human HUVEC/MSC cell line growth inhibition [KRAS2];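 for viability, T/C: percent of DMSO vehicle control luminescence so 100% = untreated viability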
Settings: for IC50: curve of first compound; for viability, T/C: stronger effect = lower value
Outline: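 HUVEC + hMSC stromal spheroids only, no malignant cells; 37 °C, 5% CO2. Drugs singly and in pairs, half-log series down from clinical Cmax (max 10 microM if Cmax undetermined).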

[1] = second compound 0.0316 µM, first compound 0.0316 µM
[2] = second compound 0.0316 µM, first compound 0.1 µM
[3] = second compound 0.0316 µM, first compound 0.316 µM
[4] = second compound 0.0316 µM, first compound 1 µM
[5] = second compound 0.0316 µM, first compound 3.16 µM
[6] = second compound 0.0316 µM, first compound 10 µM
[7] = second compound 0.1 µM, first compound 0.0316 µM
[8] = second compound 0.1 µM, first compound 0.1 µM
[9] = second compound 0.1 µM, first compound 0.316 µM
[10] = second compound 0.1 µM, first compound 1 µM
[11] = second compound 0.1 µM, first compound 3.16 µM
[12] = second compound 0.1 µM, first compound 10 µM
[13] = second compound 0.316 µM, first compound 0.0316 µM
[14] = second compound 0.316 µM, first compound 0.1 µM
[15] = second compound 0.316 µM, first compound 0.316 µM
[16] = second compound 0.316 µM, first compound 1 µM
[17] = second compound 0.316 µM, first compound 3.16 µM
[18] = second compound 0.316 µM, first compound 10 µM
[19] = second compound 1 µM, first compound 0.0316 µM
[20] = second compound 1 µM, first compound 0.1 µM
[21] = second compound 1 µM, first compound 0.316 µM
[22] = second compound 1 µM, first compound 1 µM
[23] = second compound 1 µM, first compound 3.16 µM
[24] = second compound 1 µM, first compound 10 µM
[25] = second compound 3.16 µM, first compound 0.0316 µM
[26] = second compound 3.16 µM, first compound 0.1 µM
[27] = second compound 3.16 µM, first compound 0.316 µM
[28] = second compound 3.16 µM, first compound 1 µM
[29] = second compound 3.16 µM, first compound 3.16 µM
[30] = second compound 3.16 µM, first compound 10 µM
[31] = second compound 10 µM, first compound 0.0316 µM
[32] = second compound 10 µM, first compound 0.1 µM
[33] = second compound 10 µM, first compound 0.316 µM
[34] = second compound 10 µM, first compound 1 µM
[35] = second compound 10 µM, first compound 3.16 µM
[36] = second compound 10 µM, first compound 10 µM

For `CC(C)NCC(C(=O)N1CCN(c2ncnc3c2C(C)CC3O)CC1)c1ccc(Cl)cc1` (centres undefined) + COc1cc2nc(C)nc(NC(C)c3cc(N)cc(C(F)(F)F)c3)c2cc1OC1CCOC1, which IC50 (second compound 0.0316 µM) is on record?
The IC50 was 1970 nM.

What about the IC50 (second compound 0.1 µM) of the same molecule?
Its IC50 is 1580 nM.

And the IC50 (second compound 0.316 µM)?
Its IC50 is 2100 nM.

And the IC50 (second compound 1 µM)?
Its IC50 is 2240 nM.

What about the IC50 (second compound 3.16 µM) of the same molecule?
The IC50 was 3010 nM.

What about the IC50 (second compound 10 µM) of the same molecule?
The IC50 was 996 nM.

What about the viability, T/C [1] of the same molecule?
Its viability, T/C is 92.4%.

And the viability, T/C [2]?
The viability, T/C was 95.3%.

What about the viability, T/C [3] of the same molecule?
The viability, T/C was 77.1%.

What about the viability, T/C [4] of the same molecule?
The viability, T/C was 52%.

And the viability, T/C [5]?
Its viability, T/C is 48%.

And the viability, T/C [6]?
Its viability, T/C is 49.5%.

What about the viability, T/C [7] of the same molecule?
The viability, T/C was 77.5%.

What about the viability, T/C [8] of the same molecule?
Its viability, T/C is 97.5%.

What about the viability, T/C [9] of the same molecule?
Its viability, T/C is 77.5%.

And the viability, T/C [10]?
The viability, T/C was 53.4%.

And the viability, T/C [11]?
The viability, T/C was 50%.

What about the viability, T/C [12] of the same molecule?
The viability, T/C was 36.5%.

And the viability, T/C [13]?
Its viability, T/C is 80.1%.

And the viability, T/C [14]?
The viability, T/C was 102%.

And the viability, T/C [15]?
The viability, T/C was 81.2%.

What about the viability, T/C [16] of the same molecule?
Its viability, T/C is 62.9%.

What about the viability, T/C [17] of the same molecule?
Its viability, T/C is 42.8%.

And the viability, T/C [18]?
The viability, T/C was 40.4%.

And the viability, T/C [19]?
Its viability, T/C is 85.1%.

And the viability, T/C [20]?
Its viability, T/C is 104%.

What about the viability, T/C [21] of the same molecule?
Its viability, T/C is 88.5%.

What about the viability, T/C [22] of the same molecule?
The viability, T/C was 59.8%.

What about the viability, T/C [23] of the same molecule?
The viability, T/C was 46.8%.

And the viability, T/C [24]?
The viability, T/C was 44.1%.

What about the viability, T/C [25] of the same molecule?
Its viability, T/C is 74%.

And the viability, T/C [26]?
The viability, T/C was 94.2%.

And the viability, T/C [27]?
Its viability, T/C is 76.9%.

What about the viability, T/C [28] of the same molecule?
The viability, T/C was 61.8%.

What about the viability, T/C [29] of the same molecule?
Its viability, T/C is 52.9%.

What about the viability, T/C [30] of the same molecule?
Its viability, T/C is 36.3%.

What about the viability, T/C [31] of the same molecule?
The viability, T/C was 58%.

What about the viability, T/C [32] of the same molecule?
The viability, T/C was 71.1%.

What about the viability, T/C [33] of the same molecule?
The viability, T/C was 75.8%.

What about the viability, T/C [34] of the same molecule?
The viability, T/C was 49.9%.

And the viability, T/C [35]?
Its viability, T/C is 42.5%.

What about the viability, T/C [36] of the same molecule?
The viability, T/C was 33.4%.

What does the source list for `O=C(c1cc(Cc2n[nH]c(=O)c3ccccc23)ccc1F)N1CCN(C(=O)C2CC2)CC1` + CC1OCC2(CCN(c3cnc(Sc4ccnc(N)c4Cl)c(N)n3)CC2)C1N?
IC50 (second compound 0.0316 µM): > 10000 nM; IC50 (second compound 0.1 µM): > 10000 nM; IC50 (second compound 0.316 µM): > 10000 nM; IC50 (second compound 1 µM): > 10000 nM; IC50 (second compound 3.16 µM): > 10000 nM; IC50 (second compound 10 µM): > 10000 nM; viability, T/C [1]: 102%; viability, T/C [2]: 117%; viability, T/C [3]: 100%; viability, T/C [4]: 98.7%; viability, T/C [5]: 101%; viability, T/C [6]: 132%; viability, T/C [7]: 101%; viability, T/C [8]: 101%; viability, T/C [9]: 104%; viability, T/C [10]: 108%; viability, T/C [11]: 109%; viability, T/C [12]: 94.6%; viability, T/C [13]: 102%; viability, T/C [14]: 119%; viability, T/C [15]: 99%; viability, T/C [16]: 101%; viability, T/C [17]: 88%; viability, T/C [18]: 89.4%; viability, T/C [19]: 85.4%; viability, T/C [20]: 110%; viability, T/C [21]: 95.6%; viability, T/C [22]: 87.2%; viability, T/C [23]: 86.6%; viability, T/C [24]: 88.4%; viability, T/C [25]: 74.2%; viability, T/C [26]: 96.3%; viability, T/C [27]: 91.8%; viability, T/C [28]: 89.8%; viability, T/C [29]: 98.1%; viability, T/C [30]: 90.8%; viability, T/C [31]: 72.5%; viability, T/C [32]: 79.7%; viability, T/C [33]: 79.9%; viability, T/C [34]: 67.6%; viability, T/C [35]: 81.5%; viability, T/C [36]: 76.4%
